Experiments:
PC12 cells [1] = assay: Morphological comparison of PC12 cells treated with Aβ and caspase-3 inhibitors; settings: inhibitor alone; 28 μM chen-1, 200 nM Ac-Asp-Glu-Val-Asp-aldehyde; phase contrast microscope, 72 hours
Method: Culture of cells: PC 12 cells were obtained from XiCan Tang of Institute of Material Medica, CAS. Media were DMEM(HG) containing 10% calf serum. PC12 were incubated in an incubator with constant temperature with 5% carbon dioxide at 37° C. The cells were inoculated in Petri dishes and 96-well plates in the amount […], the compounds of the present invention were added into after 12 hours, and […] of apoptosis inducer, Aβ25-35, was added after 24 hours.

PC12 cells [2] = assay: Flow cytometry detection of apoptotic PC12 cells (propidium iodide, sub-G1); assay type: cell-based
Method: Media were DMEM(HG) containing 10% calf serum.
2×10^6 cells were collected at different time respectively after PC12 were treated in the same method. Cell precipitation was washed twice with PBR, followed by adding ice ethanol, and the resulting solution was blown to disperse the cells into single, fixed for 2 hours at 4° C. Before staining, the solution was centrifuged at 300 rpm for 10 minutes, and the supernatant was discarded, then the precipitation was washed twice with PBR to remove ethanol substantially. Into the cell precipitation was added a staining solution (containing 0.1% TritonX-100, 0.1 mM EDTApH7.4, 0.01 mg/ml RNase A, 50 μg/ml propidium iodide). Cell fluorescence was detected with flow cytometry after the cells in staining solution for 30 minutes at 4° C. away from light, and percentage and cycle of apoptotic cells were calculated by analyzing DNA content. The results were obtained by flow cytometry laboratory of Institute of Biochemistry and Cell Biology, CAS.
As illustrated from the above results, it may be seen that caspase-3 inhibitors could protect PC12 markedly and resist apoptosis of PC12 mediated by neurotoxicity of Aβ of Aβ25-35, and they have no toxicity in low concentration themselves.

[3] = Aβ25-35 and inhibitor (2 μM Ac-DEVD-CHO, 28 μM Chen-1) in the medium at the same time
[4] = only caspase-3 inhibitor added, no Aβ25-35, after 72 hours

Row | Structure (SMILES) | toxic effect on PC12 cells (morphology) (PC12 cells [1]) | percentage of apoptotic cells (PC12 cells [2]; [3]) [%] | percentage of apoptotic cells (PC12 cells [2]; [4]) [%]
1 | O=C1NC(=O)c2ccccc2C1=O [Chen-1] | no toxic effect | 4.09 | 2.15
2 | CC(=O)N[C@@H](CC(=O)O)C(=O)N[C@@H](CCC(=O)O)C(=O)N[C@H](C(=O)N[C@H](C=O)CC(=O)O)C(C)C [Ac-DEVD-CHO, Ac-Asp-Glu-Val-Asp-aldehyde] | no toxic effect | 4.01 | 2.27

From patent US7683073B2, “Isoquinoline-1,3,4-trione compounds, the synthetic method and the use thereof” (Shanghai Institute of Materia Medica, Chinese Academy of …, priority 2005, dated 2010)
